Data published in patent publication US8415342B2, “Besifloxacin ophthalmic composition for the treatment or control of infection” (Bausch & Lomb Incorporated, priority 2008, dated 2013).
Values after ≈ are worked out from the molar mass of the structure shown. Read-outs that look alike come from different tables or passages of the source.

Assays:
Type in all cases: cell-based
[1] = system: Legionella pneumophila; experiment: microbe, parasite or virus in culture
[2] = system: Klebsiella oxytoca; experiment: MIC, CLSI broth microdilution, clinical isolates; conditions: Klebsiella oxytoca (N = 50)
[3] = system: Streptococcus pneumoniae; experiment: MIC, CLSI broth microdilution, clinical isolates
[4] = system: Staphylococcus aureus; experiment: MIC, CLSI broth microdilution, clinical isolates; conditions: for MIC50 / MIC90: Staphylococcus aureus
[5] = system: Staphylococcus epidermidis; experiment: MIC, CLSI broth microdilution, clinical isolates; conditions: for MIC50: Staphylococcus epidermidis
[6] = system: Staphylococcus lugdunensis; experiment: MIC, CLSI broth microdilution, clinical isolates; conditions: Staphylococcus lugdunensis (N = 15)
[7] = system: Morganella morganii; experiment: MIC, CLSI broth microdilution, clinical isolates; conditions: Morganella morganii (N = 51)
[8] = system: Citrobacter koseri; experiment: MIC, CLSI broth microdilution, clinical isolates; conditions: Citrobacter koseri (N = 100)
[9] = system: Staphylococcus haemolyticus; experiment: MIC, CLSI broth microdilution, clinical isolates; conditions: Staphylococcus haemolyticus (N = 101)
[10] = system: Staphylococcus saprophyticus; experiment: MIC, CLSI broth microdilution, clinical isolates; conditions: Staphylococcus saprophyticus (N = 101)
[11] = system: Staphylococcus hominis; experiment: MIC, CLSI broth microdilution, clinical isolates; conditions: Staphylococcus hominis (N = 50)
[12] = system: Haemophilus influenzae; experiment: MIC, CLSI broth microdilution, clinical isolates; conditions: for MIC50 / MIC90: Haemophilus influenzae
[13] = system: Viridans streptococci; experiment: MIC, CLSI broth microdilution, clinical isolates; conditions: Viridans streptococci (N = 156)
[14] = system: Streptococcus agalactiae; experiment: MIC, CLSI broth microdilution, clinical isolates; conditions: Streptococcus agalactiae (N = 100)
[15] = system: Moraxella catarrhalis; experiment: MIC, CLSI broth microdilution, clinical isolates; conditions: Moraxella catarrhalis (N = 101)
[16] = system: Staphylococcus warneri; experiment: MIC, CLSI broth microdilution, clinical isolates; conditions: Staphylococcus warneri (N = 50)
[17] = system: Streptococcus pyogenes; experiment: MIC, CLSI broth microdilution, clinical isolates; conditions: Streptococcus pyogenes (N = 101)
[18] = system: Lancefield group C, F, G streptococci; experiment: MIC, CLSI broth microdilution, clinical isolates; conditions: G streptococci (N = 50)
[19] = Streptococcus pneumoniae (PSSP, N = 31)
[20] = Staphylococcus aureus (CNS, N = 16)
[21] = Staphylococcus aureus (CS, N = 14)
[22] = Staphylococcus aureus (MSSA, N = 19)
[23] = Staphylococcus aureus (all phenotypes, N = 30)
[24] = MRSA, Staphylococcus aureus (MRSA, N = 11)
[25] = MSSA, Staphylococcus aureus (MSSA, N = 19)
[26] = Staphylococcus epidermidis (CNS, N = 6)
[27] = Staphylococcus epidermidis (CS, N = 9)
[28] = Staphylococcus epidermidis (MRSE, N = 9)
[29] = Staphylococcus epidermidis (MSSE, N = 6)
[30] = Staphylococcus epidermidis (all phenotypes, N = 15)
[31] = Haemophilus influenzae (all phenotypes, N = 40)
[32] = Haemophilus influenzae (bla negative, N = 24)
[33] = Haemophilus influenzae (bla positive, N = 16)

SMILES: NC[C@H]1O[C@H](O[C@H]2[C@H](O)[C@@H](O[C@H]3O[C@H](CO)[C@@H](O)[C@H](N)[C@H]3O)[C@H](N)C[C@@H]2N)[C@H](N)C[C@@H]1O [Tobramycin]
- MIC50 ([1]; Legionella pneumophila): 1 µg/mL (≈ 2.14 µM)
- MIC90 ([1]; Legionella pneumophila): 2 µg/mL (≈ 4.28 µM)
- MIC Range ([1]; Legionella pneumophila (N = 50)): 0.25 to 4 µg/mL
- % S [2]: 96.0%
- MIC50 [2]: 0.5 µg/mL (≈ 1.07 µM)
- MIC90 [2]: 1 µg/mL (≈ 2.14 µM)
- MIC Range [2]: 0.25 to 8 µg/mL
- MIC Range ([3]; Streptococcus pneumoniae (PISP, N = 2)): 16 to 32 µg/mL
- MIC Range ([3]; Streptococcus pneumoniae (PRSP, N = 2)): 16 to 32 µg/mL
- MIC50 [3, 19]: 16 µg/mL (≈ 34.2 µM)
- MIC90 [3, 19]: 32 µg/mL (≈ 68.4 µM)
- MIC Range [3, 19]: 8 to 32 µg/mL
- MIC Range ([3]; Streptococcus pneumoniae (all phenotypes, N = 35)): 8 to 32 µg/mL
- MIC50 ([3]; Streptococcus pneumoniae (all phenotypes, N = 35), read-out: MIC50): 16 µg/mL (≈ 34.2 µM)
- MIC90 ([3]; Streptococcus pneumoniae (all phenotypes, N = 35), read-out: MIC90): 32 µg/mL (≈ 68.4 µM)
- % S [4, 20]: 68.8%
- % S [4, 21]: 92.9%
- MIC Range [4, 21]: 0.12 to 8 µg/mL
- % S ([4]; Staphylococcus aureus (MRSA, N = 11)): 54.5%
- % S [4, 22]: 94.7%
- MIC Range [4, 22]: 0.12 to 8 µg/mL
- % S [4, 23]: 80.0%
- MIC50 [4, 24]: 1 µg/mL (≈ 2.14 µM)
- MIC90 [4, 24]: > 32 µg/mL
- MIC50 [4, 25]: 0.25 µg/mL (≈ 0.535 µM)
- MIC90 [4, 25]: 1 µg/mL (≈ 2.14 µM)
- MIC50 [4, 20]: 0.5 µg/mL (≈ 1.07 µM)
- MIC90 [4, 20]: > 32 µg/mL
- MIC50 [4, 21]: 0.25 µg/mL (≈ 0.535 µM)
- MIC90 [4, 21]: 1 µg/mL (≈ 2.14 µM)
- MIC50 [4, 23]: 0.5 µg/mL (≈ 1.07 µM)
- MIC90 [4, 23]: > 32 µg/mL
- % S [5, 26]: 83.3%
- MIC Range [5, 26]: 0.06 to 16 µg/mL
- % S [5, 27]: 88.9%
- MIC Range [5, 27]: ≦0.008-8 μg/mL
- % S [5, 28]: 77.8%
- MIC Range [5, 28]: 0.03 to 16 µg/mL
- % S [5, 29]: 100.0%
- MIC Range [5, 29]: ≦0.008-0.06 μg/mL
- % S [5, 30]: 86.7%
- MIC90 [5, 30]: 8 µg/mL (≈ 17.1 µM)
- MIC Range [5, 30]: ≦0.008-16 μg/mL
- MIC50 ([5]; MRSE, Staphylococcus epidermidis (MRSE, N = 9)): 4 µg/mL (≈ 8.56 µM)
- MIC50 [5, 26]: 2 µg/mL (≈ 4.28 µM)
- MIC50 [5, 27]: 0.03 µg/mL (≈ 0.0642 µM)
- MIC50 [5, 29]: 0.03 µg/mL (≈ 0.0642 µM)
- MIC50 [5, 30]: 0.06 µg/mL (≈ 0.128 µM)
- % S [6]: 60.0%
- MIC50 [6]: 0.12 µg/mL (≈ 0.257 µM)
- MIC90 [6]: 32 µg/mL (≈ 68.4 µM)
- % S [7]: 90.2%
- MIC50 [7]: 1 µg/mL (≈ 2.14 µM)
- MIC90 [7]: 4 µg/mL (≈ 8.56 µM)
- MIC Range [7]: 0.25 to 32 µg/mL
- % S [8]: 99.0%
- MIC50 [8]: 0.5 µg/mL (≈ 1.07 µM)
- MIC90 [8]: 1 µg/mL (≈ 2.14 µM)
- MIC Range [8]: 0.25 to 16 µg/mL
- % S [9]: 64.4%
- MIC50 [9]: 2 µg/mL (≈ 4.28 µM)
- MIC90 [9]: 32 µg/mL (≈ 68.4 µM)
- % S [10]: 99.0%
- MIC50 [10]: 0.015 µg/mL (≈ 0.0321 µM)
- MIC90 [10]: 0.06 µg/mL (≈ 0.128 µM)
- MIC Range [10]: ≦0.008-32 μg/mL
- % S [11]: 32.0%
- MIC50 [11]: 16 µg/mL (≈ 34.2 µM)
- MIC90 [11]: 32 µg/mL (≈ 68.4 µM)
- MIC Range [12, 31]: 0.06 to 4 µg/mL
- MIC Range [12, 32]: 0.06 to 4 µg/mL
- MIC Range [12, 33]: 0.5 to 4 µg/mL
- MIC50 [12, 31]: 2 µg/mL (≈ 4.28 µM)
- MIC90 [12, 31]: 4 µg/mL (≈ 8.56 µM)
- MIC50 [12, 32]: 2 µg/mL (≈ 4.28 µM)
- MIC90 [12, 32]: 4 µg/mL (≈ 8.56 µM)
- MIC50 [12, 33]: 2 µg/mL (≈ 4.28 µM)
- MIC90 [12, 33]: 2 µg/mL (≈ 4.28 µM)
- MIC Range [13]: 0.5 to 128 µg/mL
- MIC50 ([13]; read-out: MIC50): 16 µg/mL (≈ 34.2 µM)
- MIC90 ([13]; read-out: MIC90): 32 µg/mL (≈ 68.4 µM)
- MIC50 ([14]; read-out: MIC50): 32 µg/mL (≈ 68.4 µM)
- MIC90 ([14]; read-out: MIC90): 64 µg/mL (≈ 137 µM)
- MIC50 [15]: 0.25 µg/mL (≈ 0.535 µM)
- MIC90 [15]: 0.25 µg/mL (≈ 0.535 µM)
- MIC Range [15]: 0.03 to 0.5 µg/mL
- % S [16]: 86.0%
- MIC50 [16]: 0.06 µg/mL (≈ 0.128 µM)
- MIC90 [16]: 8 µg/mL (≈ 17.1 µM)
- MIC Range [17]: 4 to 64 µg/mL
- MIC50 ([17]; read-out: MIC50): 16 µg/mL (≈ 34.2 µM)
- MIC90 ([17]; read-out: MIC90): 16 µg/mL (≈ 34.2 µM)
- MIC Range [18]: 2 to 32 µg/mL
- MIC50 ([18]; read-out: MIC50): 8 µg/mL (≈ 17.1 µM)
- MIC90 ([18]; read-out: MIC90): 16 µg/mL (≈ 34.2 µM)
